Key:
[1] = target: T1, recombinant human GAA (Myozyme®) (Homo sapiens, UniProt P10253); assay: SYPRO Orange thermal stability assay (heat-induced denaturation); type: physicochemical; conditions: pH 7.4; 100 μM 1-DNJ-HCl; vs Myozyme® alone
T1 construct: purchased Genzyme Corp
Description: The thermal stability assay utilizes heat to induce protein denaturation, which is monitored using a SYPRO Orange dye that fluoresces upon binding to hydrophobic amino acids (which are not exposed in a folded protein).
FIG. 5 depicts the results of a thermal stability assay that utilizes heat to induce protein denaturation, which is monitored using a SYPRO Orange dye that fluoresces upon binding to hydrophobic amino acids (which are not exposed in a folded protein).
Denaturation is monitored using a SYPRO Orange dye that fluoresces upon binding to hydrophobic amino acids (which are not exposed in a folded protein).
The thermal stability was performed at pH 7.4 for two formulations, which corresponds to the pH of the ER.

[2] = target: T1, recombinant human GAA (Myozyme®); assay: SYPRO Orange protein folding monitored over 24 hours at 37° C.; type: physicochemical; conditions: 100 μM 1-DNJ-HCl, plasma pH
Description: FIG. 2B depicts a parallel SYPRO Orange thermal stability experiment to determine if the loss of enzyme activity shown in FIG. 2A, particularly the loss of Myozyme® activity at ER pH (7.4), correlates with protein unfolding and denaturation.
In order to determine if loss of initial enzyme activity is correlated to failure to maintain a proper conformation, a SYPRO Orange thermal stability experiment was performed on the samples above as generally described in Example 1. […] Based on this experiment, the % of GAA folded was estimated and plotted in FIG. 2B.

[3] = Circulating rhGAA after subcutaneous Myozyme® with or without DNJ (FIG. 14); type: in vivo; conditions: DNJ co-formulated with 20 mg/kg Myozyme® vs 20 mg/kg Myozyme® without DNJ
[4] = Circulating half-life and quadriceps uptake of Myozyme® in rats, tail vein (Example 11); type: in vivo, Sprague-Dawley rats; conditions: 30 mg/kg DNJ with 10 mg/kg Myozyme® via tail vein
Description: Sprague-Dawley rats were administered 10 mg/kg Myozyme® or 30 mg/kg DNJ mixed with 10 mg/kg Myozyme® via tail vein. GAA activity was measured in plasma and quadriceps tissue. Baseline GAA activity in quadriceps was subtracted (˜16 nmol/mg protein/hr) from the measured GAA following GAA or DNJ and GAA administration.

[5] = target: T1, recombinant human GAA (Myozyme®); assay: Residual GAA enzyme activity in buffer at 37° C. (4-MU-α-glucose); type: biochemical; conditions: 50 μM 1-DNJ, plasma pH (7.4), 24 hours
Description: GAA activity was evaluated to assess the ability of an ASSC of GAA to prolong the activity of the rhGAA over time. Myozyme® (45 nM) was incubated in pH 7.4 or pH 5.2 buffer with or without 50 μM 1-DNJ at 37° C. over 24 hours. Samples were assayed for GAA enzyme activity using 4-MU-α-glucose at 0, 3, 6 and 24 hours and the residual GAA activity was expressed as % of initial activity.
Residual GAA activity was determined for four formulations:
Activity was measured, based on the % of initial activity (t=0) over 24 hours. Samples were assayed for GAA enzyme activity based on the hydrolysis of the fluorogenic substrate 4-MU-α-glucose at 0, 3, 6 and 24 hours. The GAA activity was expressed as % of initial activity, i.e. residual activity.

[6] = Aggregation of 25 mg/mL Myozyme® (Example 10); type: physicochemical; conditions: 1 mM DNJ with 25 mg/mL Myozyme®; pH 7.4; 37° C.; 4 weeks; listed as DNJ
Description: Aggregation was assessed after a 4 week incubation period.
A liquid formulation comprising DNJ and GAA was prepared by dissolving DNJ in water to achieve a concentration of 10 mM DNJ. GAA was reconstituted in 1.8 ml water, and dialyzed overnight in phosphate buffered-saline (pH 7.4). […] of DNJ (10 mM) was then be added to 400 microliters of GAA, such that the GAA was at a concentration of 25 mg/ml.
25 mg/mL Myozyme® was incubated with or without 1 mM DNJ in phosphate-buffered saline at pH 7.4. Aggregation of Myozyme® was assessed after incubation for 4 weeks at 37° C.

- stability of Myozyme® (heat required to denature) on addition of the ASSC [1]: significantly increased
- tissue uptake of Myozyme® in quadriceps [4]: increased
- aggregation of Myozyme® [6]: reduces aggregation
Structure (SMILES): OC[C@H]1NC[C@H](O)[C@@H](O)[C@@H]1O [1-DNJ, 1-deoxynojirimycin]
- effect on GAA denaturation and loss of enzyme activity [2]: can prevent GAA denaturation and loss of enzyme activity
- circulating levels of rhGAA [3]: increased the circulating levels of rhGAA
- effect on loss of GAA enzyme activity [5]: ameliorates the loss of GAA enzyme activity
